Test results published in US6194408A, “Triazineone compounds for treating diseases due to Sarcocystis, Neospora and Toxoplasma” (Bayer Corporation, priority 1998, dated 2001).

Tests used:
Sarcocystis neurona = assay: Microtiter Monolayer Disruption Assay (MMDA), inhibition of BT cell destruction by S. neurona; type: cell-based; conditions: 10 μg/mL, read-out: Percent Inhibition of Cell Destruction
Method: (§1) In order to determine the scope of protection provided by Ponazuril, in vitro testing was conducted. The following strains of parasites were evaluated for their sensitivity to this compound: Strain SN3 of Sarcocystis neurona; strain SF1 of Sarcocystis falcatula; strain RH of Toxoplasma gondii; and the NC-1 strain of Neospora caninum. Ponazuril was tested at concentrations (1 μg/mL and 10 μg/mL).
(§2) Bovine turbinate (BT) cells were used for all in vitro studies. Cells were grown to confluency in 25 cm^2 flasks in RMPI 1640 media supplemented with 10% v/v fetal bovine serum (FBS), 100 Units penicillin (G/mL), […] and 5×10^-2 mM 2-mercpatoethanol. After cell confluence was obtained, cells were maintained in the same media with reduced FBS (2% v/v). Cell cultures were incubated at 37° C. in a humidified atmosphere containing 5% carbon dioxide and 95% air. […]
(§3) The assay used to determine the effectiveness of Ponazuril was the Microtiter Monolayer Disruption Assay (MMDA). […] Flat bottomed 96-well microtiter plates were inoculated with BT cells and the resulting monolayers were used to determine the effects of Toltrazuril and Ponazuril on merozoite production as measured by CPE (plaque formation). […]

[1] = Safety and effectiveness of a single high dose; type: in vivo; conditions: doses as high as 100 mg/Kg body weight
Method: For the single high dose treatment the triazineone is administered in pharmaceutically effective amounts that are greater than 10 mg/Kg and up to about 100 mg/Kg. It is a distinct feature of the invention the compounds of this invention can be non-toxic, thus they can be administrated at high dose levels. The advantage of the high dose administration resides in the fact repeated doses are not required.

Toxoplasma gondii = assay: Microtiter Monolayer Disruption Assay (MMDA), inhibition of BT cell destruction by T. gondii; type: cell-based; conditions: 1.0 μg/mL, read-out: Percent Inhibition of Cell Destruction
Method: as §1, §2, §3

[2] = tested on: Bovine turbinate (BT) cells; type: cell-based; conditions: uninfected agent treated BT cells
Method: Bovine turbinate (BT) cells were used for all in vitro studies. Cells were grown to confluency in 25 cm^2 flasks in RMPI 1640 media supplemented with 10% v/v fetal bovine serum (FBS), 100 Units penicillin (G/mL), […] and 5×10^-2 mM 2-mercpatoethanol. After cell confluence was obtained, cells were maintained in the same media with reduced FBS (2% v/v). Cell cultures were incubated at 37° C. in a humidified atmosphere containing 5% carbon dioxide and 95% air.
The assay used to determine the effectiveness of Ponazuril was the Microtiter Monolayer Disruption Assay (MMDA). This assay was used to determine if the parasites or compound were toxic for BT cells. Flat bottomed 96-well microtiter plates were inoculated with BT cells and the resulting monolayers were used to determine the effects of Toltrazuril and Ponazuril on merozoite production as measured by CPE (plaque formation). […]

[3] = Cerebral spinal fluid drug levels / passage of blood-brain barrier after repeated doses of Toltrazuril in horses; type: in vivo; conditions: horses
Method: This experiment was conducted in order to determine whether triazineones such as Toltrazuril can pass the blood-brain barrier. Normal horses were divided into three groups of three horses per group. Group 1 horses received Toltrazuril administered orally as a 5% suspension at a dose level of 2.5 mg/Kg. Group 2 horses received Toltrazuril administered orally as a 5% suspension at a dose level of 5.0 mg/Kg. Group 3 horses received Toltrazuril administered orally as a 5% suspension at a dose level of 7.5 mg/Kg. The dosing was repeated daily for 10 days. Blood samples were drawn at 48, 96 and 240 hours and the concentration of Toltrazuril, Toltrazuril sulfoxide and Ponazuril in the serum was measured. Ten days after the start of the treatment (Day 10), a sample of cerebral spinal fluid was removed from each horse and the concentrations of Toltrazuril, Toltrazuril Sulfoxide and Ponazuril were again measured in these samples. The concentrations of Toltrazuril, Toltrazuril Sulfoxide and Ponazuril in the serum and cerebral spinal fluid are reported in TABLES 5a and 5b.

[4] = Pharmacokinetics of a single oral dose of Toltrazuril in horses (blood levels); type: in vivo; conditions: horses receiving single oral 10 mg/kg Toltrazuril
Method: A pharmacokinetic study was conducted in horses comparing blood levels of Toltrazuril, Ponazuril and Toltrazuril Sulfoxide at various times post a single dose of Toltrazuril. All horses received a single dose of 10 mg/kg, which was administered orally as a suspension. Blood samples were drawn at the time of treatment (0) and at 0.25, 0.5, 1, 2, 4, 6, 12, 24, 48 and 72 hours post treatment. […] This was an indication that Ponazuril, alone, would produce acceptable blood levels that are envisioned to pass the blood-brain barrier, a characteristic required to treat neurological diseases such as those caused by Sarcocystis neurona, Toxoplasma gondii, Neospora caninum and Neospora heugesi.

Sarcocystis falcatula = assay: Microtiter Monolayer Disruption Assay (MMDA), inhibition of BT cell destruction by S. falcatula; type: cell-based; conditions: 1 μg/mL, read-out: Percent Inhibition of Cell Destruction
Method: as §1, §2, §3

EPM-Infected Horses = assay: Response of EPM-infected horses to treatment (clinical score); type: in vivo
Method: The compound was formulated into a paste using Ponazuril as a 15% active ingredient (a.i.) as described in EXAMPLE 1. It was administered to horses already diagnosed with EPM once a day for 28 days at a dose rate between 2.5 mg/Kg and 10 mg/Kg.
Naturally occurring clinical cases of EPM were well characterized by signalment and laboratory diagnosis. The diagnosis used for incorporation of EPM-positive horses into this trial was as follows: Confirmed asymmetrical neurological deficit as determined by a standardized neurological examination, to include radiography, indicative of EPM; Positive Western Blot for Sarcocystis neurona IgG; Red Blood Cell count below 500 cells/mL; CSF indices--Total Protein <90, IgG index >0.3. AQ quotient <2.2.
Additional requirements were that the horses were not suffering from diseases other than EPM. Therefore, they had to meet the following criteria: Negative CSF (<1:4) for EHV-1; Normal serum values for Vitamin E (.2.0 μg/mL); Lack of seizure disorders; Lack of behavior disorders.
Diagnosed horses were randomly assigned to groups. Group 1 horses received the paste formulation daily at a dose rate of 5mg/Kg whereas Group 2 horses received the paste formulation daily at a dose rate of 10 mg/Kg. The treatment dose was based on body weight. The horses were evaluated for a period of 90 days (approximately 60 days after discontinuation of treatment) in order to determine that treatment was indeed effective. The response to treatment was scored using the following system: 1) 0=complete success-clinically normal with a negative CSF; 2) 1=Deficit just detected at a normal gait; 3) 2=Deficit easily detected and exaggerated by backing, turning, swaying, jaw loin pressure and neck extension; 4) 3=Deficit very prominent on walking, Facial turning, loin pressure or neck extension; 5) 4=Stumbling, tripping and falling down spontaneously; 6) 5=Recumbent, unable to rise. An improvement of one (1) unit in the score was considered a significant improvement.

Neospora caninum NC-1 = assay: Microtiter Monolayer Disruption Assay (MMDA), inhibition of BT cell destruction by N. caninum; type: cell-based; conditions: 1.0 μg/mL, read-out: Percent Inhibition of Cell Destruction
Method: as §1, §2, §3

[5] = after treatment with Toltrazuril

Compound: Cc1cc(-n2c(=O)[nH]c(=O)n(C)c2=O)ccc1Oc1ccc(S(=O)(=O)C(F)(F)F)cc1 [Ponazuril]
- inhibition at 10 µg/mL (Sarcocystis neurona): 100%
- Safety and effectiveness [1]: both safe and effective
- inhibition at 1 µg/mL (Toxoplasma gondii): 100%
- Toxicity to BT cells [2]: not toxic to the BT cells
- Crossing of the blood-brain barrier ([3]; after oral Toltrazuril daily for 10 days): effectively cross the blood-brain barrier
- Concentration in cerebral spinal fluid relative to that of Toltrazuril [3, 5]: essentially equivalent to the concentration of Toltrazuril itself
- Crossing of the blood-brain barrier compared with Toltrazuril [3, 5]: crosses this barrier more effectively than does Toltrazuril
- Levels in serum / bloodstream (in words) [4]: relatively high levels
- inhibition at 1 µg/mL (Sarcocystis falcatula): 100%
- Horses demonstrating acceptable improvement (EPM-Infected Horses; 5 mg/Kg dose, eight of nine horses): 88.9%
- TOTAL clinical score (EPM-Infected Horses; 5 mg/Kg group, Day 0 (baseline)): 17
- TOTAL clinical score (EPM-Infected Horses; 5 mg/Kg group, Day 28): 13
- TOTAL clinical score (EPM-Infected Horses; 5 mg/Kg group, Day 90): 6
- Horses showing significant improvement in clinical score (EPM-Infected Horses; 10 mg/Kg group, 28 days, by day 90 post start of treatment): 100%
- TOTAL clinical score (EPM-Infected Horses; 10 mg/Kg group, Day 0 (baseline)): 19
- TOTAL clinical score (EPM-Infected Horses; 10 mg/Kg group, Day 28): 15
- TOTAL clinical score (EPM-Infected Horses; 10 mg/Kg group, Day 90): 4
- Improvement in total scores, Group 1 (5 mg/Kg) versus Group 2 (10 mg/Kg) (EPM-Infected Horses; EPM horses, 5 vs 10 mg/Kg): approximately equivalent
- Effectiveness for active treatment of EPM (EPM-Infected Horses; at either 5 mg/Kg or 10 mg/Kg, horses): effective for the active treatment of EPM in horses
- inhibition at 1 µg/mL (Neospora caninum NC-1): 100%
